Experimental findings from patent publication US20030109552A1, “Use of insulin sensitisers for treating renal diseases” (SmithKline Beecham p.l.c., priority 1994, published 2003) are described below.

Holding throughout (type): in vivo, rat
One test relates to obese Zucker fa/fa rats. Kind of test: Renal histopathology in obese Zucker fa/fa rats, 3 months dietary administration. Details: key to Chronic Nephropathy (histopathological severity, kidney): 0: None seen; ±: Minimal; +: Mild; ++: Moderate; +++: Marked. The procedure:
Obese Zucker rats are known to develop chronic nephropathy in addition to hyperlipidaemia, hyperinsulinaemia and peripheral insulin resistance (Kasiske et al 1985).
5-[4-[2-(N-methyl-N-(2-pyridyl)amino)ethoxy]benzyl]thiazolidine-2,4-dione (herein after referred to as ‘test compound’) was administered to 2-3 month old obese Zucker fa/fa rats by dietary administration to provide a daily dose over a period of 3 months ranging from 2.0-7.0 μmole/kg body weight. A group of age-matched obese Zucker fa/fa rats were given the same diet without the addition of the test compound, as was a group of lean Fa/? rats. At the end of the study, all of the control Zucker fa/fa rats had chronic nephropathy which involved dilated tubules, atrophied or hyperplastic tubular epithelial cells, thickened tubular basement membranes, segmented glomeruli or global glomerulosclerosis.

Test [1] deals with Zucker fatty (fa/fa) rats. Kind of test: Systolic blood pressure (tail cuff) in Zucker fatty rats, 9 month study. The procedure:
(§1) A second study was performed in Zucker rats over a period of 9 months to investigate the longitudinal effects of the drug on systolic blood pressure and various indices of renal function, two of which are exemplified here. In one arm of the study, the drug was given in the diet (50 μmole/kg of diet) from aged 6-7weeks in Zucker fatty (fa/fa) rats, whilst in a second arm of the study, drug treatment as above was delayed until proteinuria had become established after 4 months, indicative of structural damage already present in the kidneys. A third group of Zucker fatty rats and a further group of lean rats were given diet alone throughout the period of study.
(§2) After dosing with the test compound, at monthly intervals measurements were made of systolic blood pressure, urinary total protein and urinary N-acetyl β-D-glucosaminidase (NAG) activity.
Rats were enclosed in custom-built restrainers and placed on a shelf in a warming cabinet, whose temperature was controlled at approximately 30° C. An inflatable cuff with integral pulse sensor was attached to the tail of each rat. After warming for 20-30 min the tail cuff was inflated and deflated automatically and a measurement of systolic blood pressure made using an IITC Non-Invasive Blood Pressure Monitor. This cycle was repeated several times for each rat until stable values of blood pressure were obtained.

Test [2] deals with Zucker fatty (fa/fa) rats. Kind of test: Urinary total protein (Bio-Rad protein assay, 24 h urine) in Zucker fatty rats, 9 month study. The procedure: A second study was performed in Zucker rats over a period of 9 months to investigate the longitudinal effects of the drug on systolic blood pressure and various indices of renal function, two of which are exemplified here. […] A third group of Zucker fatty rats and a further group of lean rats were given diet alone throughout the period of study. After dosing with the test compound, at monthly intervals measurements were made of systolic blood pressure, urinary total protein and urinary N-acetyl β-D-glucosaminidase (NAG) activity. Twenty-four hour urine collections, made in metabolism cages, were aliquoted and frozen at −70° C. until required for assay. Urinary protein concentration was measured using the Bio-Rad protein assay as modified for use in a 96-well microtitre plate. The assay is a dye-binding assay based on the differential colour change of a dye in response to various concentrations of protein (Bradford, Anal. Biochem., 72, 248, 1976). After a period of incubation with Dye Reagent, diluted urine samples are read at an optical density of 595 nm using a Molecular Devices multiplate reader.

Test [3] concerns Zucker fatty (fa/fa) rats. The experiment in a line: Urinary N-acetyl β-D-glucosaminidase (NAG) activity in Zucker fatty rats, 9 month study. The procedure:
as §1, §2
Twenty-four hour urine collections, made in metabolism cages, were aliquoted and frozen at −70° C. until required for assay.
NAG activity was assayed using a reagent kit on a Hitachi 717 analyser (both supplied by Boehringer Mannheim UK, Lewes). Enzyme activity was measured by monitoring the rate of chlorophenol (570 nm) released from the substrate chlorophenol red-β-D-glucosaminide.

[4] abbreviates: Zucker fatty (fa/fa) rats treated from the age of 6-7 weeks for 9 months via the diet.
Where [5] appears, read: drug treatment commenced after proteinuria had become established.

Regarding `CN(CCOc1ccc(CC2SC(=O)NC2=O)cc1)c1ccccn1` (stereo not drawn) [Test Compound, 5-[4-[2-(N-methyl-N-(2-pyridyl)amino)ethoxy]benzyl]thiazolidine-2,4-dione], the “Chronic Nephropathy (histopathological severity, kidney)” value in the test on obese Zucker fa/fa rats (individual fatty Zucker rats, test compound in diet 2.0-7.0 μmole/kg body weight daily) is on record as “++”. Further, the “incidence and degree of chronic nephropathy compared to control Zucker fa/fa rats” value in the test with obese Zucker fa/fa rats (obese Zucker fa/fa rats, diet, 2.0-7.0 μmole/kg daily) is “reduction in the incidence and degree of chronic nephropathy”. Also, the “hydronephrosis seen in treated rats” value with obese Zucker fa/fa rats (obese Zucker fa/fa rats, diet, 2.0-7.0 μmole/kg daily, controls 4/9) was “No hydronephrosis was seen”. Besides, in test [1] (setting [4]), the development of hypertension result is on record as “prevented the development of hypertension”. Moreover, the “systolic blood pressure (further rise)” value in test [1] (setting [5]) was “prevented from rising further”. Further, the “rate of development of proteinuria” value in test [2] (setting [4]) was “markedly reduced”. The “rate of increase in the urinary protein concentration” value in test [2] (setting [5]) was “marked reduction of the rate of increase”. The “elevation of urinary NAG activity” value in test [3] (setting [4]) is listed as “markedly reduced”. Also, in test [3] (setting [5]), the “urinary NAG activity (further rise)” value is on record as “prevented from rising further”.
